In patent publication US20240343717A1, “MICROBIOCIDAL PYRAZOLE DERIVATIVES” (SYNGENTA CROP PROTECTION AG, priority 2021, published 2024):

Key:
Alternaria solani = Alternaria solani / tomato / leaf disc (early blight); format: in vivo; conditions: foliar, tomato leaf disks, sprayed 2 days before inoculation, compared to untreated control
Protocol: Example B1: Alternaria solani/Tomato/Leaf Disc (Early Blight) Tomato leaf disks cv. Baby are placed on agar in multiwell plates (24-well format) and sprayed with the formulated test compound diluted in water. The leaf disks are inoculated with a spore suspension of the fungus 2 days after application. The inoculated leaf disks are incubated at 23° C./21° C.

Pyrenophora teres = Pyrenophora teres / barley / leaf disc preventative (net blotch); format: in vivo; conditions: foliar, barley leaf segments, inoculated 2 days after application
Protocol: Example B14: Pyrenophora teres/Barley/Leaf Disc Preventative (Net Blotch) Barley leaf segments cv. Hasso are placed on agar in a multiwell plate (24-well format) and sprayed with the formulated test compound diluted in water. The leaf segments are inoculated with a spore suspension of the fungus 2 days after application. The inoculated leaf segments are incubated at 20° C. and 65% rh under a light regime of 12 h light/12 h darkness in a climate cabinet and the activity of a compound is assessed as disease control compared to untreated when an appropriate level of disease damage appears in untreated check leaf segments (5-7 days after application).

[1] = system: Mycosphaerella arachidis (Cercospora arachidicola); experiment: Mycosphaerella arachidis (Cercospora arachidicola) / liquid culture (early leaf spot); format: cell-based; conditions: growth inhibition photometrically 4-5 days after application, read-out: control of Mycosphaerella arachidis
Protocol: (§1) Example B10: Mycosphaerella arachidis (Cercospora arachidicola)/Liquid Culture (Early Leaf Spot) Conidia of the fungus from cryogenic storage are directly mixed into nutrient broth (PDB potato dextrose broth). After placing a (DMSO) solution of test compound into a microtiter plate (96-well format), the nutrient broth containing the fungal spores is added. The test plates are incubated at 24° C. and the inhibition of growth is determined photometrically 4-5 days after application.

[2] = system: Monographella nivalis (Microdochium nivale); experiment: Monographella nivalis (Microdochium nivale) / liquid culture (foot rot cereals); format: cell-based; conditions: growth inhibition photometrically 4-5 days after application, read-out: control of Monographella nivalis
Protocol: as §1, with “B9: Monographella nivalis (Microdochium nivale)/Liquid” for “B10: Mycosphaerella arachidis (Cercospora arachidicola)/Liquid”, “(Foot Rot Cereals)” for “(Early Leaf Spot)”

[3] = system: Mycosphaerella graminicola (Septoria tritici); experiment: Mycosphaerella graminicola (Septoria tritici) / liquid culture (Septoria blotch); format: cell-based; conditions: Zymoseptoria tritici, growth inhibition photometrically 4-5 days after application, read-out: control of Mycosphaerella graminicola
Protocol: as §1, with “B16:” for “B10:”, “graminicola (Septoria tritici)/Liquid” for “arachidis (Cercospora arachidicola)/Liquid”, “(Septoria Blotch)” for “(Early Leaf Spot)”

[4] = system: Glomerella lagenarium (Colletotrichum lagenarium); experiment: Glomerella lagenarium (Colletotrichum lagenarium) / liquid culture (anthracnose); format: cell-based; conditions: Colletotrichum orbiculare, growth inhibition photometrically 3-4 days after application, read-out: control of Glomerella lagenarium
Protocol: as §1, with “B3: Glomerella lagenarium (Colletotrichum lagenarium)/Liquid” for “B10: Mycosphaerella arachidis (Cercospora arachidicola)/Liquid”, “(Anthracnose)” for “(Early Leaf Spot)”, “measured” for “determined”, “3-4” for “4-5”

[5] = system: Blumeria graminis f. sp. tritici (Erysiphe graminis f. sp. tritici); experiment: Blumeria graminis f. sp. tritici / wheat / leaf disc preventative (powdery mildew on wheat); format: in vivo; conditions: foliar, wheat leaf segments, inoculated 1 day after application
Protocol: Example B4: Blumeria graminis f. Sp. Tritici (Erysiphe graminis f. Sp. Tritici)/Wheat/Leaf Disc Preventative (Powdery Mildew on Wheat) Wheat leaf segments cv. Kanzler are placed on agar in a multiwell plate (24-well format) and sprayed with the formulated test compound diluted in water. The leaf disks are inoculated by shaking powdery mildew infected plants above the test plates 1 day after application. The inoculated leaf disks are incubated at 20° C. and 60% rh under a light regime of 24 h darkness followed by 12 h light/12 h darkness in a climate chamber and the activity of a compound is assessed as percent disease control compared to untreated when an appropriate level of disease damage appears on untreated check leaf segments (6-8 days after application).

[6] = system: Phaeosphaeria nodorum (Septoria nodorum); experiment: Phaeosphaeria nodorum (Septoria nodorum) / wheat / leaf disc preventative (glume blotch); format: in vivo; conditions: Parastagonospora nodorum, foliar, wheat leaf segments, inoculated 2 days after application
Protocol: Example B8: Phaeosphaeria nodorum (Septoria nodorum)/Wheat/Leaf Disc Preventative (Glume Blotch) Wheat leaf segments cv. Kanzler are placed on agar in a multiwell plate (24-well format) and sprayed with the formulated test compound diluted in water. The leaf disks are inoculated with a spore suspension of the fungus 2 days after application. The inoculated test leaf disks are incubated at 20° C. and 75% rh under a light regime of 12 h light/12 h darkness in a climate cabinet and the activity of a compound is assessed as percent disease control compared to untreated when an appropriate level of disease damage appears in untreated check leaf disks (5-7 days after application).

[7] = system: Botryotinia fuckeliana (Botrytis cinerea); experiment: Botryotinia fuckeliana (Botrytis cinerea) / liquid culture (gray mould); format: cell-based; conditions: growth inhibition photometrically 3-4 days after application, read-out: control of Botryotinia fuckeliana
Protocol: as §1, with “B2: Botryotinia fuckeliana (Botrytis cinerea)/Liquid” for “B10: Mycosphaerella arachidis (Cercospora arachidicola)/Liquid”, “(Gray Mould)” for “(Early Leaf Spot)”, “(Vogels” for “(PDB potato dextrose”, “3-4” for “4-5”

Fusarium culmorum = experiment: microbe, parasite or virus in culture; format: cell-based; conditions: read-out: control of Fusarium culmorum

Cn1cc(C(C)(CNC(=O)c2cc(-c3ccc(F)cc3F)on2)c2ccncn2)cn1 (stereo not shown) [Compound P-23, 5-(2,4-difluorophenyl)-N-[2-(1-methylpyrazol-4-yl)-2-pyrimidin-4-yl-propyl]isoxazole-3-carboxamide]
≥ 80%: pest or weed control at 200 ppm (Alternaria solani) | pest or weed control at 200 ppm (Pyrenophora teres)

Cn1cc(C(C)(CNC(=O)c2cc(C3CCCCC3)on2)c2cccc(Cl)n2)cn1 (stereo not shown) [Compound P-79, N-[2-(6-chloro-2-pyridyl)-2-(1-methylpyrazol-4-yl)propyl]-5-cyclohexyl-isoxazole-3-carboxamide]
≥ 80%: inhibition of growth at 20 ppm [1] | inhibition of growth at 20 ppm [2] | inhibition of growth at 20 ppm [3] | pest or weed control at 200 ppm (Pyrenophora teres) | inhibition of growth at 20 ppm [4]

Cn1cc(C(C)(CNC(=O)c2cc(-c3ccc(F)cc3F)no2)c2cccc(Cl)n2)cn1 (stereo not shown) [Compound P-4, N-[2-(6-chloro-2-pyridyl)-2-(1-methylpyrazol-4-yl)propyl]-3-(2,4-difluorophenyl)isoxazole-5-carboxamide]
≥ 80%: pest or weed control at 200 ppm (Alternaria solani) | inhibition of growth at 20 ppm [4] | pest or weed control at 200 ppm [5]

COc1ccc(C(C)(CNC(=O)c2cc(-c3ccc(F)cc3F)on2)c2cnn(C)c2)nn1 (stereo not shown) [Compound P-105, 5-(2,4-difluorophenyl)-N-[2-(6-methoxypyridazin-3-yl)-2-(1-methylpyrazol-4-yl)propyl] isoxazole-3-carboxamide]
≥ 80%: pest or weed control at 200 ppm (Alternaria solani) | pest or weed control at 200 ppm (Pyrenophora teres)

CO/N=C(/C)c1ccc(C(C)(CNC(=O)c2cc(-c3ccc(F)cc3F)on2)c2cnn(C)c2)nc1 (stereo not shown) [Compound P-61, 5-(2,4-difluorophenyl)-N-[2-[5-[(Z)-N-methoxy-C-methyl-carbonimidoyl]-2-pyridyl]-2-(1-methylpyrazol-4-yl)propyl]isoxazole-3-carboxamide]
≥ 80%: inhibition of growth at 20 ppm [1] | pest or weed control at 200 ppm (Alternaria solani) | inhibition of growth at 20 ppm [2] | inhibition of growth at 20 ppm [3] | pest or weed control at 200 ppm (Pyrenophora teres) | pest or weed control at 200 ppm [6] | inhibition of growth at 20 ppm [4]

Cn1cc(C(C)(CNC(=O)c2cc(-c3ccc(F)cc3F)on2)c2cccc(N)n2)cn1 (stereo not shown) [Compound P-50, N-[2-(6-amino-2-pyridyl)-2-(1-methylpyrazol-4-yl)propyl]-5-(2,4-difluorophenyl) isoxazole-3-carboxamide]
≥ 80%: inhibition of growth at 20 ppm [1] | inhibition of growth at 20 ppm [2] | inhibition of growth at 20 ppm [3] | inhibition of growth at 20 ppm [7] | pest or weed control at 200 ppm (Pyrenophora teres) | inhibition of growth at 20 ppm [4]

Cn1cc(C(C)(CNC(=O)c2cc(-c3ccc(F)cc3F)on2)c2ccc(C#N)cn2)cn1 (stereo not shown) [Compound P-75, N-[2-(5-cyano-2-pyridyl)-2-(1-methylpyrazol-4-yl)propyl]-5-(2,4-difluorophenyl) isoxazole-3-carboxamide]
≥ 80%: pest or weed control at 200 ppm (Alternaria solani) | inhibition of growth at 20 ppm [2] | inhibition of growth at 20 ppm [3] | pest or weed control at 200 ppm (Pyrenophora teres)

COc1ccnc(C(C)(CNC(=O)c2cc(-c3ccc(F)cc3F)on2)c2cnn(C)c2)c1 (stereo not shown) [Compound P-7, 5-(2,4-difluorophenyl)-N-[2-(4-methoxy-2-pyridyl)-2-(1-methylpyrazol-4-yl)propyl]isoxazole-3-carboxamide]
≥ 80%: pest or weed control at 200 ppm (Alternaria solani) | inhibition of growth at 20 ppm [2] | inhibition of growth at 20 ppm [3] | inhibition of growth at 20 ppm [4]

CC(=O)c1cccc(C(C)(CNC(=O)c2cc(-c3ccc(F)cc3F)on2)c2cnn(C)c2)n1 (stereo not shown) [Compound P-48, N-[2-(6-acetyl-2-pyridyl)-2-(1-methylpyrazol-4-yl)propyl]-5-(2,4-difluorophenyl) isoxazole-3-carboxamide]
≥ 80%: inhibition of growth at 20 ppm [1] | pest or weed control at 200 ppm (Alternaria solani) | inhibition of growth at 20 ppm [2] | inhibition of growth at 20 ppm [3] | inhibition of growth at 20 ppm [7] | pest or weed control at 200 ppm (Pyrenophora teres) | pest or weed control at 200 ppm [6] | inhibition of growth at 20 ppm [4]

Cn1cc(C(C)(CNC(=O)c2cc(-c3ccc(F)cc3F)on2)c2cncc(Cl)n2)cn1 (stereo not shown) [Compound P-21, N-[2-(6-chloropyrazin-2-yl)-2-(1-methylpyrazol-4-yl)propyl]-5-(2,4-difluorophenyl) isoxazole-3-carboxamide]
≥ 80%: inhibition of growth at 20 ppm [3] | inhibition of growth at 20 ppm [7] | pest or weed control at 200 ppm (Pyrenophora teres) | pest or weed control at 200 ppm [5]

CCCCc1nnc(C(=O)NCC(C)(c2cnn(C)c2)c2cccc(Cl)n2)s1 (stereo not shown) [Compound P-108, 5-butyl-N-[2-(6-chloro-2-pyridyl)-2-(1-methylpyrazol-4-yl)propyl]-1,3,4-thiadiazole-2-carboxamide]
≥ 80%: inhibition of growth at 20 ppm [1] | inhibition of growth at 20 ppm [2] | inhibition of growth at 20 ppm [3] | inhibition of growth at 20 ppm [7] | inhibition of growth at 20 ppm [4] | inhibition of growth at 20 ppm (Fusarium culmorum)

CC(=O)Nc1ccc(C(C)(CNC(=O)c2cc(-c3ccc(F)cc3F)on2)c2cnn(C)c2)nc1 (stereo not shown) [Compound P-59, N-[2-(5-acetamido-2-pyridyl)-2-(1-methylpyrazol-4-yl)propyl]-5-(2,4-difluorophenyl) isoxazole-3-carboxamide]
≥ 80%: pest or weed control at 200 ppm [5]

CN(C)C(=O)c1cccc(C(C)(CNC(=O)c2cc(-c3ccc(F)cc3F)on2)c2cnn(C)c2)n1 (stereo not shown) [Compound P-44, 5-(2,4-difluorophenyl)-N-[2-[6-(dimethylcarbamoyl)-2-pyridyl]-2-(1-methylpyrazol-4-yl)propyl]isoxazole-3-carboxamide]
≥ 80%: pest or weed control at 200 ppm (Alternaria solani) | pest or weed control at 200 ppm (Pyrenophora teres) | pest or weed control at 200 ppm [6]

CC(C)C(CNC(=O)c1cc(-c2ccc(F)cc2F)on1)(c1cnn(C)c1)c1cccc(Cl)n1 (stereo not shown) [Compound P-32, N-[2-(6-chloro-2-pyridyl)-3-methyl-2-(1-methylpyrazol-4-yl)butyl]-5-(2,4-difluorophenyl) isoxazole-3-carboxamide]
≥ 80%: pest or weed control at 200 ppm (Alternaria solani) | inhibition of growth at 20 ppm [2] | inhibition of growth at 20 ppm [3] | inhibition of growth at 20 ppm [7] | pest or weed control at 200 ppm (Pyrenophora teres) | pest or weed control at 200 ppm [6]
